One data set deals with MCF-7 Breast. Kind of data set: MTT cytotoxicity MCF-7. Particulars: for GI50: read-out: GI50 Concentration That Inhibits Cell Growth by 50%, MCF-7 Breast, 72 h, MTT. The class given is cell-based. How it is done:
(§1) Cytotoxicity assay studies were performed at Calvary Mater Newcastle Hospital, Waratah, NSW, Australia. In vitro studies were performed according to described methods. Complexes were prepared in DMSO as stock treatment (30 mM) solutions and stored at −20 °C. All cell lines were cultured in a humidified atmosphere with 5% CO2 at 37 °C and maintained in Dulbecco’s modified eagle’s medium (DMEM; Trace Biosciences, Melbourne, Australia) supplemented with 10% foetal bovine serum, sodium bicarbonate (10 mM), penicillin (100 IU mL^−1), streptomycin (100 μg mL^−1), and L-glutamine (4 mM). The non-cancer MCF10A cell line was cultured in DMEM.F12 (1:1) cell culture media (Composition in SI). Cytotoxicity was determined by plating cells in duplicate in 100 μL medium at a density of 2500–4000 cells per well in 96-well plates. After 24 h, when cells were in logarithmic growth, media (100 μL) with or without the test agent were added to each well (day 0). After 72 h of exposure, growth inhibitory effects were evaluated by MTT (3-[4,5-dimethylthiazol-2-yl]-2,5-diphenyltetrazolium bromide) assay, and absorbance was read at 540 nm. […] These calculations were based on the difference between the optical density values on day 0 and those at the end of drug exposure.

In a further data set the test system is HT29 Colon. Kind of data set: MTT cytotoxicity HT29. It counts as cell-based. The conditions noted are these: read-out: GI50 Concentration That Inhibits Cell Growth by 50%, 72 h. Here is the method: as §1
For data set [1], the system named is calf thymus DNA (ctDNA). Nature of the data set: Fluorescent intercalator displacement (FID) assay, EtBr-saturated ctDNA. The class given is binding. Details: Kq (bimolecular quenching constant) / KSV (Stern–Volmer quenching constant): unit not given here. Particulars: buffer pH 7.0. How it is done: To investigate the potential mechanisms of action of complexes 1–3, fluorescent intercalator displacement (FID) experiments and DNA binding experiments utilizing the innate fluorescence were undertaken. For FID experiments, the concentration of a fluorescent intercalator, in this case ethidium bromide (EtBr), that is displaced by the complex under investigation is determined. In a solution of calf-thymus DNA (ctDNA) where is saturated with EtBr, the change in fluorescence is monitored as the complex is titrated into this solution. Once the decrease in fluorescence has stopped, the concentration of the complex allows us to calculate the stoichiometric point of binding, the change in fluorescence at the point of binding (ΔFsat), the binding coefficient (Ka), bimolecular quenching constant (Kq), Stern–Volmer quenching constant (Ksv), the binding constant for fluorescence (KF), and the molar equivalents of CMC (n) at the point of intersection is the experimental stoichiometry of binding. (1) [ctDNA]Tn−∆Fx/∆Fsat=[CMC] (2) ∆Fx/∆Fsat1/n=fraction of ctDNA−CMC complex (3) 1−∆Fx/∆Fsat1/n=fraction free CMC
The fluorescence at 601 nm for each titration was plotted, and the KF and n could be calculated from the intercept and slope, respectively. (4) F0/F=1+Kqτ0CMC=1+KSV[CMC] where F0 is the fluorescence of the binding site in the absence of quencher (CMC), F is the fluorescence of the site containing the CMC, and t0 is the lifetime of the chromophore in the absence of the quencher (Ɛ476 = 5680 for ethidium-bound DNA).
A plot of F0/F against [CMC] using experimental values allows for the determination of Kq and KSV from the slope. (5) log10F0−F/F=nlog10CMC+log10KF where n is the number of ethidium ligands that are displaced per CMC. […] A plot of log10[(F0 − F)/F)] against log10[CMC] is used to determine KF and n from the intercept and slope, respectively. Experiments were performed in triplicate for each CMC.
Fluorescent intercalator displacement (FID) assays were obtained using the same instrument and by using 10 mm quartz cells. Stock solutions CMCs 1–3 (30 µM) were titrated into a solution of […] ethidium bromide, 150 µM ctDNA in a 40 mM K2HPO4/KH2PO, and 10 mM KCl buffer at pH 7.0. The fluorescence was measured from 550 to 750 nm excited at 480 nm and inverting 4 times and waiting 3 min between the addition of ctDNA and scan time to allow adequate time for the CMCs to interact with the DNA.

A further data set deals with A2780 Ovarian. Kind of data set: MTT cytotoxicity A2780. The class given is cell-based. Particulars: read-out: GI50 Concentration That Inhibits Cell Growth by 50%, 72 h. How it is done: as §1
Another data set deals with ADDP Cis Res Ovarian. Nature of the data set: MTT cytotoxicity ADDP. It counts as cell-based. Particulars: read-out: GI50 Concentration That Inhibits Cell Growth by 50%, 72 h. Here is the method: as §1
In the next data set the test system is MIA Pancreas. Kind of data set: MTT cytotoxicity MIA. The class given is cell-based. Particulars: read-out: GI50 Concentration That Inhibits Cell Growth by 50%, 72 h. Here is the method:
as §1

The subject of another data set is A431 Skin. Nature of the data set: MTT cytotoxicity A431. The class given is cell-based. Particulars: read-out: GI50 Concentration That Inhibits Cell Growth by 50%, 72 h. Here is the method:
as §1

Another data set concerns SJ-G2 Glioblastoma. Kind of data set: MTT cytotoxicity SJ-G2. It counts as cell-based. Particulars: read-out: GI50 Concentration That Inhibits Cell Growth by 50%, 72 h. Here is the method:
as §1

The next data set relates to BE2-C Neuroblastoma. Nature of the data set: MTT cytotoxicity BE2-C. The class given is cell-based. The conditions noted are these: read-out: GI50 Concentration That Inhibits Cell Growth by 50%, 72 h. Here is the method:
as §1

The next data set has as its system H460 Lung. Nature of the data set: MTT cytotoxicity H460. The class given is cell-based. The conditions noted are these: read-out: GI50 Concentration That Inhibits Cell Growth by 50%, 72 h. How it is done:
as §1

The nature of data set [2]: Lipophilicity by RP-HPLC (log Kw). The class given is physicochemical. The conditions noted are these: isocratic 70 to 90% solvent B. How it is done:
Lipophilicity was calculated using a RP-HPLC method to determine log Kw, whereby a stock solution was injected at different isocratic ratios ranging from 70 to 90% solvent B (organic) at a flow rate of 1 mL min^−1. These experiments were undertaken on an Agilent Technologies 1260 Infinity machine equipped with a Phenomenex Onyx™ Monolithic C18 reverse phase column (100 × 4.6 mm, 130 Å). The mobile phase comprised 0.06% TFA in water (solvent A) and 0.06% TFA in ACN:H2O (90:10, solvent B). The dead zero volume time was determined using potassium iodide as an external dead volume marker, further details are provided in the Supplementary Materials.

The next data set has as its system Du145 Prostate. Kind of data set: MTT cytotoxicity Du145. It counts as cell-based. The conditions noted are these: read-out: GI50 Concentration That Inhibits Cell Growth by 50%, 72 h. Here is the method:
as §1

Data set [3] has as its system calf thymus DNA (ctDNA). Kind of data set: Direct ctDNA binding by inherent fluorescence (Benesi–Hildebrand). Particulars: inherent fluorescence method, 10 µM CMC, buffer pH 7.0. How it is done: ctDNA experiments utilising the inherent fluorescence of the complexes were completed in addition to the FID experiments. […] The values of Ka and n for the compounds are listed in Table 4, where R^2 is the linear correlation coefficient for Ka.
The direct fluorescent measurements of DNA binding constants were also obtained with the same fluorimeter using 10 mm path length quartz cells. A 0.065 M stock solution of ctDNA was titrated into a 10 µM solution of CMCs 1–3 in a 40 mM K2HPO4/KH2PO, 10 mM KCl buffer at pH 7.0. The fluorescence was measured from 550 to 750 nm excited at 320 nm inverting 4 times and waiting 3 min between the addition of ctDNA and scan time to allow adequate time for the CMCs to interact with the DNA.

Another data set concerns U87 Glioblastoma. Nature of the data set: MTT cytotoxicity U87. It counts as cell-based. The conditions noted are these: read-out: GI50 Concentration That Inhibits Cell Growth by 50%, 72 h. How it is done: as §1
A further data set has as its system MCF10A Breast (normal). Kind of data set: MTT cytotoxicity MCF10A (non-cancer). It counts as cell-based. The conditions noted are these: read-out: GI50 Concentration That Inhibits Cell Growth by 50%, 72 h. Here is the method: as §1

Regarding [Pt(DiBequ)(SSDACH)]+ [Complex 3a], in the data set on MCF-7 Breast (MCF10A/MCF-7), the “SI = GI50 for normal cells/GI50 for cancer cells (MCF10A/MCF-7)” value turned out to be 1.07. Besides, the GI50 came to 15 ± 0.5 µM with MCF-7 Breast; 16 µM with HT29 Colon; 12 ± 0.9 µM with A2780 Ovarian; 15 µM in the data set on ADDP Cis Res Ovarian; 15 ± 0.7 µM with MIA Pancreas; 14 ± 0.6 µM with A431 Skin. The GI50 stood at 17 ± 0.6 µM in the data set with SJ-G2 Glioblastoma; 9 ± 1.3 µM in the data set on BE2-C Neuroblastoma; 16 ± 0.9 µM in the data set with H460 Lung; 23 ± 2.1 µM in the data set with Du145 Prostate; 16 ± 0.6 µM with U87 Glioblastoma; 16 ± 0.6 µM in the data set on MCF10A Breast (normal). In the data set with calf thymus DNA (ctDNA) [1], the “KSV (Stern–Volmer quenching constant)” value worked out at 1.342. The “Ka (binding coefficient)” value in the data set on calf thymus DNA (ctDNA) [1] is 1.07 × 10^4. The “Kf (binding constant for fluorescence)” value with calf thymus DNA (ctDNA) [1] was 3.18. In addition, the “Kq (bimolecular quenching constant)” value with calf thymus DNA (ctDNA) [1] stood at 0.237. For the same substance, the “Point of Experimental Stoichiometry of Binding” value with calf thymus DNA (ctDNA) [1] is given as 2.38. Moreover, the “n (number of ethidium ligands displaced per CMC)” value with calf thymus DNA (ctDNA) [1] is 0.579. For the same substance, the “ΔFsat (change in fluorescence at the point of binding)” value in the data set on calf thymus DNA (ctDNA) [1] is given as 91.83. Further, the “Lipophilicity × 10^−2 (log Kw)” value in data set [2] is recorded as 0.77 ± 0.032 × 10^−2. In addition, the “Ka (binding constant)” value in the data set on calf thymus DNA (ctDNA) [3] was 1.11 × 10^4.
Turning to [Pt(Pepy)(RRDACH)]+ [Complex 1b], the GI50 in the data set on MCF-7 Breast was 13 ± 1.7 µM; in the data set on HT29 Colon, 41 ± 2.7 µM; in the data set on A2780 Ovarian, 31 ± 2.9 µM; in the data set on ADDP Cis Res Ovarian, 26 ± 0.6 µM; in the data set on MIA Pancreas it was 41 ± 2 µM; with A431 Skin, 29 ± 2.6 µM. In addition, the GI50 in the data set on SJ-G2 Glioblastoma is 20 ± 4.8 µM; with BE2-C Neuroblastoma, 38 ± 4.6 µM; in the data set with H460 Lung, 25 ± 2.9 µM; with Du145 Prostate, 41 ± 0.9 µM; in the data set with U87 Glioblastoma, 23 ± 2.2 µM; in the data set on MCF10A Breast (normal), 32 ± 2.7 µM. In addition, the “KSV (Stern–Volmer quenching constant)” value in the data set on calf thymus DNA (ctDNA) [1] was 1.957. In addition, in the data set with calf thymus DNA (ctDNA) [1], the “Ka (binding coefficient)” value is 1.58 × 10^4. Further, the “Kf (binding constant for fluorescence)” value in the data set on calf thymus DNA (ctDNA) [1] stood at 4.23. Also, the “Kq (bimolecular quenching constant)” value with calf thymus DNA (ctDNA) [1] stood at 0.328. Moreover, the “Point of Experimental Stoichiometry of Binding” value in the data set on calf thymus DNA (ctDNA) [1] amounted to 2.65. Moreover, the “n (number of ethidium ligands displaced per CMC)” value in the data set on calf thymus DNA (ctDNA) [1] is given as 0.757. The “ΔFsat (change in fluorescence at the point of binding)” value with calf thymus DNA (ctDNA) [1] stood at 86.38. For the same substance, the “Lipophilicity × 10^−2 (log Kw)” value in data set [2] was 1.52 ± 0.063 × 10^−2. Moreover, the “Ka (binding constant)” value with calf thymus DNA (ctDNA) [3] was 1.46 × 10^4.

Values taken from PMC10178562, “Synthesis and Characterisation of Fluorescent Novel Pt(II) Cyclometallated Complexes with Anticancer Activity” (International Journal of Molecular Sciences, 2023).
